From US12371427B2, “Polymorphic forms of a substituted-quinoxaline-type bridged-piperidine compound” (Purdue Pharma L.P., priority 2019, dated 2025)
Like-named read-outs stand apart in the source and are kept apart here.

Key:
Assay type in all cases: physicochemical
[1] = Relative stability (ripening) study of crystal forms at various water activity levels
Method: Relative stability studies were conducted at 25° C. to determine thermodynamic crystal stability at various water activity levels ranging from aw=0 to aw=0.94. Both non-solvated forms (Forms A and D) and hydrate forms (Form C and E) were ripened during the study.
Saturated suspensions of the Formula (I) were prepared by stirring excess API in the specified solvent system. The suspension was stirred overnight at 25° C. A clarifying filtration was performed and the filtrate was added to a 2 mL vial containing seeds or small quantities of the relevant forms. The resulting suspensions were stirred at 25° C. for seven days. The solids were isolated, air-dried for 45 minutes, and analyzed by FTIR.

[2] = Solubility study, visually estimated by dosing solvent aliquots into 10.0 mg API; conditions: thermodynamic from solid
Method: Solubility was assessed in an array of diverse solvents in order to facilitate the selection of solvent systems and corresponding dosing strategies for the subsequent crystal-form screening experiments. The solubility of Form A of Formula (I) was visually estimated in 12 solvents at RT, and if applicable, at 40° C. by dosing small aliquots of the solvent into a fixed amount of the API (10.0 mg) until the dissolution point or a maximum volume of 1.8 mL was reached.

[3] = Particle size distribution after jet milling, laser diffraction dry particle size analyzer; conditions: crystalline Form A after fluidized bed opposed jet milling
Method: 21.98 kg of crystalline Form A Formula (I) was processed in a fluidized bed opposed jet mill (Model number 100AFG; Hosokawa Micron) at a feed rate of 8 kg/h under nitrogen at 0.6 MPa and 15,000 rpm. After milling, 20.9 kg ([…]) was collected and analyzed by laser diffraction dry particle size analyzer (HELOS&RODOS).

O=C(O)c1nc2ccccc2n([C@H]2C[C@H]3CCC[C@@H](C2)N3C2CC3CCCC(C3)C2)c1=O (stereo partly shown) [Form A]
Crystal form remaining after the ripening study ([1]; all solvent systems, 25° C., seven days, FTIR): the only crystal form remaining | Relative stability among crystalline forms of Formula (I) ([1]; confirmed in ripening studies): the most stable crystalline form | solubility ([2]; organic solvent or mixture, DCM, 40° C., read-out: Solubility at 40° C.): < 6000 µg/mL | solubility ([2]; organic solvent or mixture, DCM, RT, read-out: Solubility at RT): < 6000 µg/mL | solubility ([2]; organic solvent or mixture, EtOAc, 40° C., read-out: Solubility at 40° C.): < 6000 µg/mL | solubility ([2]; organic solvent or mixture, EtOAc, RT, read-out: Solubility at RT): < 6000 µg/mL | solubility ([2]; organic solvent or mixture, IPA, 40° C., read-out: Solubility at 40° C.): < 6000 µg/mL | solubility ([2]; organic solvent or mixture, IPA, RT, read-out: Solubility at RT): < 6000 µg/mL | solubility ([2]; organic solvent or mixture, IPA:water (9:1), 40° C., read-out: Solubility at 40° C.): < 6000 µg/mL | solubility ([2]; organic solvent or mixture, IPA:water (9:1), RT, read-out: Solubility at RT): < 6000 µg/mL | solubility ([2]; organic solvent or mixture, IPE, 40° C., read-out: Solubility at 40° C.): < 6000 µg/mL | solubility ([2]; organic solvent or mixture, IPE, RT, read-out: Solubility at RT): < 6000 µg/mL | solubility ([2]; organic solvent or mixture, MTBE, 40° C., read-out: Solubility at 40° C.): < 6000 µg/mL | solubility ([2]; organic solvent or mixture, MTBE, RT, read-out: Solubility at RT): < 6000 µg/mL | solubility ([2]; organic solvent or mixture, MeCN, 40° C., read-out: Solubility at 40° C.): < 6000 µg/mL | solubility ([2]; organic solvent or mixture, MeCN, RT, read-out: Solubility at RT): < 6000 µg/mL | solubility ([2]; organic solvent or mixture, MeOH, 40° C., read-out: Solubility at 40° C.): < 7000 µg/mL | solubility ([2]; organic solvent or mixture, MeOH, RT, read-out: Solubility at RT): < 7000 µg/mL | solubility ([2]; organic solvent or mixture, THF, 40° C., read-out: Solubility at 40° C.): < 6000 µg/mL | solubility ([2]; organic solvent or mixture, THF, RT, read-out: Solubility at RT): < 6000 µg/mL | solubility ([2]; organic solvent or mixture, Toluene, 40° C., read-out: Solubility at 40° C.): < 7000 µg/mL | solubility ([2]; organic solvent or mixture, Toluene, RT, read-out: Solubility at RT): < 7000 µg/mL | solubility ([2]; Water, 40° C., read-out: Solubility at 40° C.): < 6000 µg/mL | solubility ([2]; Water, RT, read-out: Solubility at RT): < 6000 µg/mL

O=C(O)c1nc2ccccc2n([C@H]2C[C@H]3CCC[C@@H](C2)N3C2CC3CCCC(C3)C2)c1=O (stereo partly shown) [Formula (I)]
D10 [3]: 0.63 μm | D30 [3]: 1.36 μm | D50 [3]: 2.29 μm | D70 [3]: 3.57 μm | D90 [3]: 5.8 μm | solubility ([2]; all solvents of Table 3 other than DMSO, organic solvent or mixture, read-out: Solubility (low) in all other solvents evaluated): ≤ 7000 µg/mL | solubility ([2]; organic solvent or mixture, DMSO, RT, read-out: Solubility at RT): 21000 to 52000 µg/mL
